Measurements from patent US10844051B2, “Substituted oxazoles for the treatment of cancer” (THE ROYAL INSTITUTION FOR THE ADCANCEMENT OF …, priority 2015, dated 2020).

Molecular target: T1, human GATA2 (Homo sapiens, UniProt P23769)
T1 construct: expressed in transfected cells; host or cells: IHH
T1 sequence (P23769 1-480): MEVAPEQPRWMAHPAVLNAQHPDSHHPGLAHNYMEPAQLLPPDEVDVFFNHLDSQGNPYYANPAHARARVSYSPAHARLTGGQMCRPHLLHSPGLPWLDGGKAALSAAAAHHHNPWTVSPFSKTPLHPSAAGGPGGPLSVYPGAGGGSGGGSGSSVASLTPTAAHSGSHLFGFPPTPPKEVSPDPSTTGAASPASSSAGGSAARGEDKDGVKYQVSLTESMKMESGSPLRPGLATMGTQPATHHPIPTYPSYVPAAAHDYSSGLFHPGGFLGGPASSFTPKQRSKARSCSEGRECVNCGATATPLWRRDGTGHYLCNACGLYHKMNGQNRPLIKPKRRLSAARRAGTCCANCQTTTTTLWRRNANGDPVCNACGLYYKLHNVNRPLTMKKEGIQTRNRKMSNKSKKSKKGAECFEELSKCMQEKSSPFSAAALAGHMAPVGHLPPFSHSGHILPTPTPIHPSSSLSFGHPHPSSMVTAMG
Experiment: GATA2-dependent reporter assay in IHH cells
Assay type: cell-based
Details: GATA-Luc reporter, 48 h
Protocol: K7174 is a known GATA2 inhibitor. The IHH cells were transiently transfected with empty vector (for the NT) or human GATA2-expressing plasmid as well as pRL-TK (internal control) and GATA-Luc reporter plasmids. Cells were exposed to DMSO vehicle or compounds for 48 h. Experiments were in triplicate.

SMILES	GATA2 inhibition in GATA2-dependent reporter assay
COc1ccc(/C(=C\C(=O)N2CCC(O)(c3ccccc3)CC2)CCc2ccccc2)cc1OC [Compound 883]	GATA2 inhibitors
c1ccc(-c2nc(CCCc3c[nH]c4ccccc34)oc2-c2ccccc2)cc1 [Compound 632]	GATA2 inhibitors
Cc1ccc(/C(=C\C(=O)N2CCC(O)(c3ccccc3)CC2)CCc2cccc(F)c2)cc1 [Compound 882]	GATA2 inhibitors
O=C(/C=C(/CCc1cccc(F)c1)c1ccccc1)N1CCC(O)(c2ccccc2)CC1 [Compound 860]	GATA2 inhibitors
COc1ccc(/C(=C\C(=O)N2CCC(O)(c3ccccc3)CC2)CCc2ccccc2)cc1 [Compound 871]	GATA2 inhibitors
O=C(/C=C(/C=C/c1cccc(C(F)(F)F)c1)c1ccccc1)N1CCC(O)(c2ccccc2)CC1 [Compound 872]	GATA2 inhibitors
O=C(/C=C(/CCc1ccccc1)c1cccc(C(F)(F)F)c1)N1CCC(O)(c2ccccc2)CC1 [Compound 869]	GATA2 inhibitors
C(=C\c1cccs1)/c1nc(-c2ccccc2)c(-c2ccccc2)o1 [Compound 685]	GATA2 inhibitors
Fc1cccc(-c2[nH]c(Cc3c[nH]c4ccccc34)nc2-c2ccco2)c1 [Compound 839]	GATA2 inhibitors
c1ccc(-c2nc(CCc3c[nH]c4ccccc34)oc2-c2ccccc2)cc1 [Compound 631]	GATA2 inhibitors
Cc1ccc(/C(=C\C(=O)N2CCC(O)(c3ccccc3)CC2)CCc2ccccc2)cc1 [Compound 870]	GATA2 inhibitors
O=C(C/C(=C\c1ccccc1)c1ccccc1)N1CCC(O)(c2ccccc2)CC1 [Compound 880]	GATA2 inhibitors
COc1cccc(-c2nc(Cc3c[nH]c4ccccc34)oc2-c2cccc(O)c2)c1 [Compound 719]	GATA2 inhibitors
O=C(/C=C(/CCc1cccc(C(F)(F)F)c1)c1ccccc1)N1CCC(O)(c2ccccc2)CC1 [Compound 868]	GATA2 inhibitors
COc1ccc(CC/C(=C/C(=O)N2CCC(O)(c3ccccc3)CC2)c2ccccc2)cc1 [Compound 858]	GATA2 inhibitors
O=C1Nc2ccccc2C1CCc1nc(-c2cccc(F)c2)c(-c2cccc(F)c2)o1 (stereo not drawn) [Compound 866]	GATA2 inhibitors
O=C(/C=C(/CCc1ccccc1)c1ccccc1)N1CCC(O)(c2ccccc2)CC1 [Compound 859]	GATA2 inhibitors
COc1cccc(/C=C/c2nc(-c3ccccc3)c(-c3ccccc3)o2)c1 [Compound 684]	GATA2 inhibitors
O=C(/C=C(/Cc1ccccc1)c1ccccc1)N1CCC(O)(c2ccccc2)CC1 [Compound 881]	GATA2 inhibitors
c1coc(-c2nc(CCCc3c[nH]c4ccccc34)oc2-c2ccco2)c1 [Compound 831]	GATA2 inhibitors

Tested on: hSTING and/or mSTING
Experiment: hSTING- or mSTING-dependent ISRE-luc reporter assay in 293T cells
Assay type: cell-based
Details: 24 hours
Protocol: ISRE-luc (reporter), pRL-TK (internal control) and hSTING- or mSTING-expressing plasmids were transiently transfected into 293T cells. Cells were exposed to DMSO vehicle control or compounds for 24 hours. Experiments were done in triplicate.

SMILES	activation of hSTING and/or mSTING in ISRE-luc reporter assay
O=C(c1ccccc1)N1CCN(Cc2nc(-c3cccc(F)c3)c(-c3cccc(F)c3)[nH]2)CC1 [Compound 1121]	activate hSTING and/or mSTING
Clc1ccc(N2CCN(Cc3nc(-c4ccccc4)c(-c4ccccc4)[nH]3)CC2)cc1Cl [Compound 1098]	activate hSTING and/or mSTING
Fc1cccc(CN2CCN(Cc3nc(-c4ccccc4)c(-c4ccccc4)o3)CC2)c1 [Compound 1286]	activate hSTING and/or mSTING
O=C(c1ccccc1)N1CCN(Cc2nc(-c3ccccc3)c(-c3ccccc3)[nH]2)CC1 [Compound 1122]	activate hSTING and/or mSTING

Molecular target: T2, human STING (hSTING) (Homo sapiens, UniProt Q86WV6)
T2 construct: expressed in transfected cells; host or cells: 293T
T2 sequence (Q86WV6 whole entry H232R): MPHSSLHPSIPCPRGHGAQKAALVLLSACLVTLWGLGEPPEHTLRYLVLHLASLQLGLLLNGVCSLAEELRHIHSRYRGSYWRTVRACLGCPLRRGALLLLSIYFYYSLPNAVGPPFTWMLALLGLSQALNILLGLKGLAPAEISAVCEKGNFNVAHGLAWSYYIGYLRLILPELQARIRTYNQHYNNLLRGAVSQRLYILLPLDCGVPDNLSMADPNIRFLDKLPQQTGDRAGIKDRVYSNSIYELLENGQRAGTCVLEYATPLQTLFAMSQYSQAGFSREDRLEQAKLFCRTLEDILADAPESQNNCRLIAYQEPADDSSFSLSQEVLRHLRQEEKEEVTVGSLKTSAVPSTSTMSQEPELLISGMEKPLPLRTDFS
Experiment: hSTING ISRE-luc reporter assay in 293T cells
Assay type: cell-based
Details: 24 hours
Protocol: ISRE-luc (reporter), pRL-TK (internal control) and hSTING-expressing plasmids were transiently transfected into 293T cells. Cells were exposed to DMSO vehicle control or compounds for 24 hours. Experiments were done in triplicate.

SMILES	activation of hSTING in ISRE-luc reporter assay
COc1ccccc1-c1nc(CCCc2c[nH]c3ccccc23)oc1-c1ccccc1OC [Compound 916]	activate hSTING
FC(F)(F)c1ccccc1-c1nc(CCCc2c[nH]c3ccccc23)oc1-c1ccccc1C(F)(F)F [Compound 677]	activate human STING (hSTING)
COc1ccc(-c2nc(Cc3c[nH]c4ccccc34)oc2-c2ccc(OC)cc2)cc1 [Compound 660]	activate hSTING
c1coc(-c2nc(CCc3c[nH]c4ccccc34)oc2-c2ccco2)c1 [Compound 919]	activate hSTING
FC(F)(F)c1ccccc1-c1nc(CCc2c[nH]c3ccccc23)oc1-c1ccccc1C(F)(F)F [Compound 920]	activate hSTING
COc1ccccc1-c1nc(CCc2c[nH]c3ccccc23)oc1-c1ccccc1OC [Compound 917]	activate hSTING
FC(F)(F)c1ccc(-c2nc(Cc3c[nH]c4ccccc34)oc2-c2ccc(C(F)(F)F)cc2)cc1 [Compound 653]	activate hSTING
FC(F)(F)c1ccc(-c2nc(CCc3c[nH]c4ccccc34)oc2-c2ccc(C(F)(F)F)cc2)cc1 [Compound 918]	activate hSTING
Fc1ccc(-c2nc(CCCc3c[nH]c4ccccc34)oc2-c2ccc(F)cc2)cc1 [Compound 671]	activate hSTING
COc1cccc(-c2nc(CCc3c[nH]c4ccccc34)oc2-c2cccc(OC)c2)c1 [Compound 641]	activate hSTING
FC(F)(F)c1cc(CCc2nc(-c3ccccc3)c(-c3ccccc3)o2)cc(C(F)(F)F)c1 [Compound 689]	activate hSTING
Clc1cccc(-c2nc(CCCc3c[nH]c4ccccc34)oc2-c2cccc(Cl)c2)c1 [Compound 762]	activate human STING (hSTING)
c1coc(-c2nc(CCCc3c[nH]c4ccccc34)oc2-c2ccco2)c1 [Compound 831]	activate hSTING

Molecular target: T3, ETV1 (Homo sapiens, UniProt P50549)
T3 construct: expressed in transfected cells; host or cells: HEK293
T3 sequence (P50549 1-477): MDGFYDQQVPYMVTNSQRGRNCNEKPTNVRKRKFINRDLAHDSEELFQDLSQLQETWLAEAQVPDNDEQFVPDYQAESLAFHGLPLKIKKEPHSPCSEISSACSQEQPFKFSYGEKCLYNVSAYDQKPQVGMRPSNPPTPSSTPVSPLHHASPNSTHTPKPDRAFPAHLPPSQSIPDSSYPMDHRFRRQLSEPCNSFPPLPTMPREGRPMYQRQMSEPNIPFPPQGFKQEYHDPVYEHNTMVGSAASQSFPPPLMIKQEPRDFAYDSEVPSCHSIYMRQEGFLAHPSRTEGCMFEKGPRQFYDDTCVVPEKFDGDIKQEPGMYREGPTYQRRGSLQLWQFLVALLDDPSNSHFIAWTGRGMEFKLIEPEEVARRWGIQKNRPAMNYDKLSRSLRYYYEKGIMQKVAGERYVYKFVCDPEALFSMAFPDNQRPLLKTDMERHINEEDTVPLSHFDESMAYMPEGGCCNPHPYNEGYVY
Experiment: ETV1-dependent reporter assay in HEK293 cells
Assay type: cell-based
Details: 48 hours
Protocol: HEK293 cells were transiently transfected with empty vector (for the NT) or ERG-expressing plasmid as well as pRL-TK (internal control) and PUx3-Luc reporter. Cells were then exposed to DMSO vehicle or compounds at designated doses for 48 hours. Experiments were done in triplicate.
Experiments were done as described above in FIG. 1.1a) except that ERG plasmid was replaced by ETV1 plasmid.

SMILES	ETV1 inhibition in ETV1-dependent reporter assay
c1ccc(-c2nc(Cc3c[nH]c4ccccc34)oc2-c2ccccc2)cc1 [Compound 708]	ETV1 inhibitors
Fc1ccc2[nH]cc(Cc3nc(-c4ccccc4)c(-c4ccccc4)o3)c2c1 [Compound 636]	ETV1 inhibitors
Cc1ccc(-c2nc(Cc3c[nH]c4ccccc34)oc2-c2ccc(C)cc2)cc1 [Compound 654]	ETV1 inhibitors
O=C1Nc2ccccc2C1Cc1nc(-c2ccccc2)c(-c2ccccc2)o1 (stereo not drawn) [Compound 700]	ETV1 inhibitors
FC(F)(F)c1ccc(-c2nc(Cc3c[nH]c4ccccc34)oc2-c2ccc(C(F)(F)F)cc2)cc1 [Compound 653]	ETV1 inhibitors
C(=C\c1c[nH]c2ccccc12)/c1nc(-c2ccccc2)c(-c2ccccc2)o1 [Compound 657]	ETV1 inhibitors
COc1cccc(-c2nc(CCc3c[nH]c4ccccc34)oc2-c2cccc(OC)c2)c1 [Compound 641]	ETV1 inhibitors
Fc1ccccc1-c1nc(Cc2c[nH]c3ccccc23)oc1-c1ccccc1F [Compound 655]	ETV1 inhibitors
Fc1ccc(-c2nc(Cc3c[nH]c4ccccc34)oc2-c2ccc(F)cc2)cc1 [Compound 652]	ETV1 inhibitors
Cn1cc(Cc2nc(-c3ccccc3)c(-c3ccccc3)o2)c2ccccc21 [Compound 638]	ETV1 inhibitors
Cc1[nH]c2ccccc2c1Cc1nc(-c2ccccc2)c(-c2ccccc2)o1 [Compound 637]	ETV1 inhibitors
